The subject of one assay is Klebsiella pneumoniae. The assay can be described thus: Filtering paper agar diffusion bacteriostatic test against Klebsiella pneumoniae. The note with it: 50 μL on 0.6 cm filter paper, extract 1 mg/10 μL, positive control 1 mg/mL, MH plate, 37° C., 16-20 h.
For the next assay, the system named is Shigella dysenteriae. In words: Filtering paper agar diffusion bacteriostatic test against Shigella dysenteriae. The note with it: 50 μL on 0.6 cm filter paper, extract 1 mg/10 μL, positive control 1 mg/mL, MH plate, 37° C., 16-20 h. It counts as cell-based.

The values that follow come from patent US20220339209A1, “ISOLATION, IDENTIFICATION AND APPLICATION OF STREPTOCOCCUS SP. 121” (priority 2021, published 2022).

Structures are written as SMILES.

For `NC[C@H]1O[C@H](O[C@H]2[C@H](O)[C@@H](O[C@H]3O[C@H](CO)[C@@H](O)[C@H](N)[C@H]3O)[C@H](N)C[C@@H]2N)[C@H](O)[C@@H](O)[C@@H]1O` [Kanamycin, kanamycin], the figures for the “size of bacteriostatic ring, mean” value in the assay on Klebsiella pneumoniae (mean of 3 measurements) and in the assay with Shigella dysenteriae (mean of 3 measurements) were 19.7 mm and 23.7 mm, respectively. Besides, the “size of bacteriostatic ring” value in the assay with Klebsiella pneumoniae (the first time) was 20 mm; with Klebsiella pneumoniae (the second time) it was 18 mm; in the assay with Klebsiella pneumoniae (the third time), 21 mm; in the assay with Shigella dysenteriae (the first time), 24 mm; in the assay with Shigella dysenteriae (the second time) it was 24 mm; with Shigella dysenteriae (the third time) it was 23 mm.
